Measurements from US20240334931A1, “NEMATICIDAL COMPOSITION” (ISHIHARA SANGYO KAISHA, LTD., priority 2021, published 2024).

What was measured:
Format in all cases: in vivo
[1] = system: soybean cyst nematode (Heterodera glycines); assay: Test on effects against soybean cyst nematode: treated contaminated soil, soybean pot test (Test Example 3); design: key: 0: No parasitic cyst observed on the roots at all; 1: Parasitic cyst observed to a slight degree; 2: Parasitic cyst observed to a moderate degree; 3: Parasitic cyst observed to a heavy degree; 4: Parasitic cyst observed densely on the entire roots; details: 10 ml poured to 200 ml contaminated soil, about one month after sowing
Protocol: . The treated soil was put into a pot, three soybean seeds were sown, and the pot was placed in a greenhouse. About one month after the sowing of the soybean seeds, the parasite index was determined based on the cyst parasite level on the roots shown in Table 7.

[2] = system: southern root-knot nematode (Meloidogyne incognita); assay: Test on effects against southern root-knot nematode: treated contaminated soil, cucumber pot test (Test Example 1 and Comparative Test); design: key: 0: No knot formed on the root at all; 1: Knots formed to a slight degree; 2: Knots formed to a moderate degree; 3: Knots formed to a heavy degree; 4: Knots formed to the heaviest degree
Protocol: The treated soil was put into a pot, three cucumber seeds were sown, and the pot was placed in a greenhouse. Two to three weeks after the sowing of the cucumber seeds, the root knot index was determined based on the degree of formation of root knots shown in Table 5. Each composition containing Compound No. […]-192 or B-196 at a concentration of 400 ppm and the composition containing Compound No. […] [table] […] Root knot index of 2 corresponds to a state where the proportion of healthy roots is 50% or less to the entire roots, and indicates control effects to such an extent that cucumber as a crop plant to be tested cannot healthily grow.

[3] = system: Cobb root-lesion nematode (Pratylenchus penetrans); assay: Test on effects against Cobb root-lesion nematode: treated contaminated soil, burdock pot test (Test Example 2); design: key: 0: No injury; 1: Slight injury; 2: Moderate injury; 3: Heavy injury; 4: Heaviest injury; details: 800 ppm, 10 ml poured to 200 ml contaminated soil, about one month after sowing
Protocol: . The treated soil was put into a pot, three burdock seeds were sown, and the pot was placed in a greenhouse. About one month after the sowing of the burdock seeds, the injury index was determined based on the root injury level shown in Table 6.

[4] = 400 ppm, 10 ml poured to 200 ml contaminated soil, cucumber, two to three weeks after sowing
[5] = Comparative Test, active ingredient concentration 50 ppm, otherwise as Test Example 1 (cucumber)

SMILES | parasite index ([1]; 800 ppm) | root knot index [2, 4] | root knot index [2, 5] | injury index [3] | parasite index ([1]; 400 ppm) | root knot index ([2]; […], cucumber, two to three weeks after sowing)
O=CNN=C(c1ccccc1)C1(n2cnc(C(F)(F)F)n2)CC1 (single isomer, unassigned) [B-3] | 1 | 1 |  |  |  | 
CC(C)(C(=NNC=O)c1cccc(F)c1)n1ccc(C(F)(F)F)n1 [A-274] | 1 | 1 |  |  |  | 
CC(C)(C(=NNC=O)c1ccccc1OC(F)(F)F)n1cnc(C(F)(F)F)n1 [A-271] | 1 | 1 |  |  |  | 
CC(C)(C(=NNC=O)c1ccccc1)n1ccc(C(F)(F)F)n1 [A-1, N′-(2-methyl-1-phenyl-2-(3-trifluoromethyl-1H-pyrazol-1-yl)propylidene) formhydrazide] | 1 | 1 | 1 | 1 |  | 
CC(C)(C(=NNC=O)c1ccccc1C(F)(F)F)n1ccc(C(F)(F)F)n1 [A-260] |  | 1 |  |  | 1 | 
Cc1ccccc1C(=NNC=O)C1(n2ccc(C(F)(F)F)n2)CC1 [B-196] | 1 | 1 |  |  |  | 
CC(C)(C(=NNC=O)c1cccc(Cl)c1)n1cnc(C(F)(F)F)n1 [A-319] | 1 | 1 |  |  |  | 
CC(C)(C(=NNC=O)c1cccc2c1OC(F)(F)O2)n1ccc(C#N)n1 [A-416] | 1 | 1 |  |  |  | 
Cc1cccc(C(=NNC=O)C(C)(C)n2cnc(C(F)(F)F)n2)c1 [A-323, N′-(2-methyl-1-(3-methylphenyl)-2-(3-trifluoromethyl-1H-triazol-1-yl)propylidene) formhydrazide] | 1 |  |  |  |  | 1
CC(C)(C(=NNC=O)c1cccc(Cl)c1Cl)n1cnc(C(F)(F)F)n1 [A-333] | 1 | 1 |  |  |  | 
CC(C)(C(=NNC=O)c1cccc(Cl)c1)n1ccc(C(F)(F)F)n1 [A-318] | 1 | 1 | 1 | 1 |  | 
CC(C)(C(=NNC=O)c1ccc(F)cc1)n1ccc(C(F)(F)F)n1 [A-107] | 1 | 1 |  |  |  | 
O=CNN=C(c1ccc(F)cc1)C1(n2cnc(C(F)(F)F)n2)CC1 (single isomer, unassigned) [B-106] |  | 1 |  |  | 1 | 
CC(C)(C(=NNC=O)c1ccc(Cl)cc1)n1ccc(C(F)(F)F)n1 [A-89] | 1 | 1 |  |  |  | 
COc1cccc(C(=NNC=O)C(C)(C)n2ccc(C(F)(F)F)n2)c1 [A-328] | 1 | 1 |  |  |  | 
CC(C)(C(=NNC=O)c1cccc(F)c1)n1ccc(Br)n1 [A-279] | 1 | 1 |  |  |  | 
CC(C)(C(=NNC=O)c1cccc2c1OC(F)(F)O2)n1cnc(C(F)(F)F)n1 [A-411] | 1 | 1 |  |  |  | 
O=CNN=C(c1ccccc1)C1(n2ccc(C(F)(F)F)n2)CC1 [B-1, N′-(phenyl(1-(3-trifluoromethyl-1H-pyrazol-1-yl)cyclopropyl)methylene) formhydrazide] | 1 | 1 |  | 1 |  | 
CC(C)(C(=NNC=O)c1ccccc1)n1cnc(C(F)(F)F)n1 [A-2] | 1 | 1 | 0 |  |  | 
CC(C)(C(=NNC=O)c1cc(F)ccc1Cl)n1cnc(C(F)(F)F)n1 [A-352] | 1 | 1 |  |  |  | 
